Experimental data reported in article PMC12647645, “Structural interactions of BWC0977 with Klebsiella pneumoniae topoisomerase IV and biochemical basis of its broad-spectrum activity” (Communications Biology, 2025).
In brackets after ≈: the same amount, converted by molar mass. Several values for one entry are separate records, joined by “and”; a condition that tells them apart may be missing. Equal values may be shown once. Read-outs that look alike come from different tables or passages of the source.

Experiments:
E. coli gyrase = target: T1, E. coli gyrase (Escherichia coli, UniProt P0AES4+P0AES6); assay type: biochemical; conditions: gyrase cleavage-complex assay
T1 construct: purchased Inspiralis
Experimental: Reactions were stopped by adding 3.8 μL of a stop solution containing 0.8 μL Proteinase K (20 mg/mL) and 3 μL SDS (2%), followed by incubation at 37 °C for 60 min. Afterward, 4 μL of STEB loading buffer was added, and samples were run on pre-stained 0.8% agarose gels containing 0.4 μg/mL ethidium bromide. […] The % nicked and linear DNA formed with varying compound concentrations was plotted for comparison.

E. coli = conditions: ref 6 (Hameed P et al., 2024); cited from earlier work
P. aeruginosa ATCC 27853 = conditions: >4× MIC; cited from earlier work
[1] = target: E. coli GyrA M120K mutant gyrase (Escherichia coli, UniProt P0AES4+P0AES6, M120K); experiment: biochemical; assay type: biochemical; conditions: for Gyrase supercoiling inhibition response: GyrA M120K gyrase
Human topo IIß = Human topo IIß (Homo sapiens, UniProt Q02880); experiment: Human topo IIß decatenation assay; assay type: biochemical
Experimental: Human topo IIα (0.9 nM) and topo IIß (2.2 nM) decatenation assays were performed following the same protocol used for bacterial topoisomerase IV decatenation assays. The assay buffer was made of 50 mM Tris. HCl (pH 7.5), 125 mM NaCl, 10 mM MgCl2, 5 mM DTT, and 100 μg/mL albumin.

E. coli topoisomerase IV = target: T2, E. coli topoisomerase IV (Escherichia coli, UniProt P0AFI2+P20083); experiment: biochemical; assay type: biochemical
T2 construct: purchased Inspiralis

[2] = tested on: A. baumannii ATCC 19606 resistant mutant colonies (mutant 1-5); experiment: microbe, parasite or virus in culture; assay type: cell-based; conditions: Acinetobacter baumannii
K. pneumoniae KPNIH1 = experiment: microbe, parasite or virus in culture; assay type: cell-based; conditions: Klebsiella pneumoniae
[3] = target: E. coli GyrA D82N mutant gyrase (Escherichia coli, UniProt P0AES4+P0AES6, D82N); experiment: biochemical; assay type: biochemical; conditions: for Gyrase supercoiling inhibition response: GyrA D82N gyrase
[4] = tested on: E. coli MG1655 (GyrA WT, ParC WT); experiment: microbe, parasite or virus in culture; assay type: cell-based; conditions: Escherichia coli
E. coli wild-type strain = experiment: MIC, wild-type strain; assay type: cell-based; conditions: Escherichia coli
S. aureus gyrase = S. aureus gyrase (Staphylococcus aureus, UniProt P0A0K8+P20831); experiment: biochemical
E. coli ATCC 25922 [5] = experiment: MIC broth microdilution; assay type: cell-based; conditions: Escherichia coli, ATCC25922
E. faecalis ATCC 29212 = experiment: MIC broth microdilution; assay type: cell-based; conditions: Enterococcus faecalis, ATCC29212
[6] = tested on: multidrug-resistant (MDR) Gram-negative bacteria, Gram-positive bacteria, anaerobes, and biothreat pathogens; conditions: diverse global panel; cited from earlier work
A. baumannii ATCC 19606 = experiment: MIC broth microdilution; assay type: cell-based; conditions: Acinetobacter baumannii
[7] = tested on: E. coli MG1655 GyrA R121K, ParC WT; experiment: microbe, parasite or virus in culture; assay type: cell-based; conditions: Escherichia coli
K. pneumoniae = conditions: ref 6 (Hameed P et al., 2024); cited from earlier work
K. pneumoniae BAA 2782 = experiment: microbe, parasite or virus in culture; assay type: cell-based; conditions: Klebsiella pneumoniae, BAA2782
E. coli BAA 2469 = experiment: microbe, parasite or virus in culture; assay type: cell-based; conditions: Escherichia coli, BAA2469
E. coli ATCC 25922 [8] = conditions: >4× MIC; cited from earlier work
[9] = compound 4.444 µM, source data Fig 6A/6B, 4.444 µM
[10] = compound 13.333 µM, source data Fig 6A/6B, 13.333 µM
[11] = compound 40 µM, source data Fig 6A/6B, 40 µM
[12] = compound 120 µM, source data Fig 6A/6B, 120 µM

**Q.** What does the source list for `Cn1c(=O)ccc2ccc(F)c(CCNC[C@H]3CN(c4cnc5c(n4)NC(=O)CO5)C(=O)O3)c21` [BWC0977]?
**A.** type of DNA breaks induced (E. coli gyrase): single-strand DNA breaks; MIC90 against diverse global isolates (E. coli): 0.5 µg/mL (≈ 1.07 µM); resistant colonies on exposure (P. aeruginosa ATCC 27853): no resistant colonies; IC50 ([1]; Fig. 6, read-out: IC50 M120K gyrase supercoiling): 116 µM; Gyrase supercoiling inhibition response [1, 9]: 22.36 and 14.93; Gyrase supercoiling inhibition response [1, 10]: 30.98 and 24.28; Gyrase supercoiling inhibition response [1, 11]: 42.55 and 34.32; Gyrase supercoiling inhibition response [1, 12]: 58.34 and 49.21; reduction in inhibition potency compared to wildtype gyrase ([1]; GyrA M120K vs WT): > 500 fold; inhibition at 4.444 µM ([1]; read-out: Gyrase supercoiling inhibition response, GyrA M120K gyrase, compound 4.444 µM, source data Fig 6A/6B): 20.2%; inhibition at 13.333 µM ([1]; read-out: Gyrase supercoiling inhibition response, GyrA M120K gyrase, compound 13.333 µM, source data Fig 6A/6B): 27.2%; inhibition at 40 µM ([1]; read-out: Gyrase supercoiling inhibition response, GyrA M120K gyrase, compound 40 µM, source data Fig 6A/6B): 34.7%; inhibition at 120 µM ([1]; read-out: Gyrase supercoiling inhibition response, GyrA M120K gyrase, compound 120 µM, source data Fig 6A/6B): 56.3%; IC50 (Human topo IIß): > 200 µM; Topo IV decatenation inhibition response (E. coli topoisomerase IV; E. coli topo IV, compound 0.008 μM, source data Fig 2A, listed as 977, 0.008 µM): 28.08 and 39.25; inhibition at 0.008 µM (E. coli topoisomerase IV; E. coli topo IV, compound 0.008 μM, source data Fig 2A, read-out: Topo IV decatenation inhibition response): 30.8%; Topo IV decatenation inhibition response (E. coli topoisomerase IV; E. coli topo IV, compound 0.074 μM, source data Fig 2A, listed as 977, 0.074 µM): 89.53 and 79.92; inhibition at 0.074 µM (E. coli topoisomerase IV; E. coli topo IV, compound 0.074 μM, source data Fig 2A, read-out: Topo IV decatenation inhibition response): 75.6%; Topo IV decatenation inhibition response (E. coli topoisomerase IV; E. coli topo IV, compound 0.222 μM, source data Fig 2A, listed as 977, 0.222 µM): 92.32 and 88.38; inhibition at 0.222 µM (E. coli topoisomerase IV; E. coli topo IV, compound 0.222 μM, source data Fig 2A, read-out: Topo IV decatenation inhibition response): 83.4%; Topo IV decatenation inhibition response (E. coli topoisomerase IV; E. coli topo IV, compound 2 μM, source data Fig 2A, listed as 977, 2 µM): 94.13 and 90.30; inhibition at 2 µM (E. coli topoisomerase IV; E. coli topo IV, compound 2 μM, source data Fig 2A, read-out: Topo IV decatenation inhibition response): 84.8%; higher inhibition potency compared to compound 17a (E. coli topoisomerase IV; E. coli topoisomerase IV): ~ 20 fold; IC50 (E. coli topoisomerase IV; read-out: IC50 E. coli topo IV decatenation): 0.013 ± 0.004 µM; MIC90 ([2]; ATCC19606, read-out: MIC 90 in (μg/mL), resistant mutant colony 1): 0.6 µg/mL (≈ 1.28 µM); MIC90 ([2]; ATCC19606, read-out: MIC 90 in (μg/mL), resistant mutant colony 2): 0.07 µg/mL (≈ 0.149 µM); MIC90 ([2]; ATCC19606, read-out: MIC 90 in (μg/mL), resistant mutant colony 3): 0.07 µg/mL (≈ 0.149 µM); MIC90 ([2]; ATCC19606, read-out: MIC 90 in (μg/mL), resistant mutant colony 4): 0.07 µg/mL (≈ 0.149 µM); MIC90 ([2]; ATCC19606, read-out: MIC 90 in (μg/mL), resistant mutant colony 5): 0.3 µg/mL (≈ 0.64 µM); MIC (K. pneumoniae KPNIH1): 1 µg/mL (≈ 2.13 µM); IC50 ([3]; Fig. 6, read-out: IC50 D82N gyrase supercoiling): 8.07 µM; Gyrase supercoiling inhibition response [3, 9]: 46.06 and 47.14; Gyrase supercoiling inhibition response [3, 10]: 41.37 and 59.15 and 62.03; Gyrase supercoiling inhibition response [3, 11]: 73.59 and 74.94; Gyrase supercoiling inhibition response [3, 12]: 87.19 and 87.16; reduction in inhibition potency compared to wildtype gyrase ([3]; GyrA D82N vs WT): > 500 fold; inhibition at 4.444 µM ([3]; read-out: Gyrase supercoiling inhibition response, GyrA D82N gyrase, compound 4.444 µM, source data Fig 6A/6B): 30.7%; inhibition at 40 µM ([3]; read-out: Gyrase supercoiling inhibition response, GyrA D82N gyrase, compound 40 µM, source data Fig 6A/6B): 55.7%; inhibition at 120 µM ([3]; read-out: Gyrase supercoiling inhibition response, GyrA D82N gyrase, compound 120 µM, source data Fig 6A/6B): 78.8%; MIC [4]: 0.03 µg/mL (≈ 0.064 µM); MIC (E. coli wild-type strain): 0.01 µg/mL (≈ 0.0213 µM); Gyrase supercoiling inhibition response (S. aureus gyrase; S. aureus gyrase, compound 0.0002 μM, source data Fig 2C, listed as 977, 0.0002 µM): 1.69 and 1.99; inhibition at 0.0002 µM (S. aureus gyrase; S. aureus gyrase, compound 0.0002 μM, source data Fig 2C, read-out: Gyrase supercoiling inhibition response): 2.89%; Gyrase supercoiling inhibition response (S. aureus gyrase; S. aureus gyrase, compound 0.001 μM, source data Fig 2C, listed as 977, 0.001 µM): 21.39 and 19.98; inhibition at 0.001 µM (S. aureus gyrase; S. aureus gyrase, compound 0.001 μM, source data Fig 2C, read-out: Gyrase supercoiling inhibition response): 26.9%; Gyrase supercoiling inhibition response (S. aureus gyrase; S. aureus gyrase, compound 0.004 μM, source data Fig 2C, listed as 977, 0.004 µM): 39.52 and 42.6; inhibition at 0.004 µM (S. aureus gyrase; S. aureus gyrase, compound 0.004 μM, source data Fig 2C, read-out: Gyrase supercoiling inhibition response): 46.8%; Gyrase supercoiling inhibition response (S. aureus gyrase; S. aureus gyrase, compound 0.012 μM, source data Fig 2C, listed as 977, 0.012 µM): 60.4 and 63.65; inhibition at 0.012 µM (S. aureus gyrase; S. aureus gyrase, compound 0.012 μM, source data Fig 2C, read-out: Gyrase supercoiling inhibition response): 57.6%; Gyrase supercoiling inhibition response (S. aureus gyrase; S. aureus gyrase, compound 0.037 μM, source data Fig 2C, listed as 977, 0.037 µM): 62.46 and 64.07; inhibition at 0.037 µM (S. aureus gyrase; S. aureus gyrase, compound 0.037 μM, source data Fig 2C, read-out: Gyrase supercoiling inhibition response): 66.3%; Gyrase supercoiling inhibition response (S. aureus gyrase; S. aureus gyrase, compound 0.111 μM, source data Fig 2C, listed as 977, 0.111 µM): 73.28 and 76.49; inhibition at 0.111 µM (S. aureus gyrase; S. aureus gyrase, compound 0.111 μM, source data Fig 2C, read-out: Gyrase supercoiling inhibition response): 70.2%; Gyrase supercoiling inhibition response (S. aureus gyrase; S. aureus gyrase, compound 0.333 μM, source data Fig 2C, listed as 977, 0.333 µM): 87.57 and 81.68; inhibition at 0.333 µM (S. aureus gyrase; S. aureus gyrase, compound 0.333 μM, source data Fig 2C, read-out: Gyrase supercoiling inhibition response): 84%; Gyrase supercoiling inhibition response (S. aureus gyrase; S. aureus gyrase, compound 1 μM, source data Fig 2C, listed as 977, 1 µM): 89.66 and 78.1; inhibition at 1 µM (S. aureus gyrase; S. aureus gyrase, compound 1 μM, source data Fig 2C, read-out: Gyrase supercoiling inhibition response): 91.1%; Gyrase supercoiling inhibition response (S. aureus gyrase; S. aureus gyrase, compound 3 μM, source data Fig 2C, listed as 977, 3 µM): 98.25 and 99.54; inhibition at 3 µM (S. aureus gyrase; S. aureus gyrase, compound 3 μM, source data Fig 2C, read-out: Gyrase supercoiling inhibition response): 94.8%; IC50 (S. aureus gyrase; Supplementary Fig 1G): 0.009 µM; MIC (E. coli ATCC 25922 [5]): 0.06 µg/mL (≈ 0.128 µM); MIC (E. faecalis ATCC 29212): 0.03 µg/mL (≈ 0.064 µM); minimum inhibitory concentration (MIC90) range [6]: 0.03 to 2 µg/mL; MIC (A. baumannii ATCC 19606; ATCC19606): 0.125 µg/mL (≈ 0.267 µM); MIC90 (A. baumannii ATCC 19606; ATCC19606, read-out: MIC 90 in (μg/mL), A. baumannii ATCC 19606 (WT)): 0.15 µg/mL (≈ 0.32 µM); MIC [7]: 0.01 µg/mL (≈ 0.0213 µM); MIC90 against diverse global isolates (K. pneumoniae): 2 µg/mL (≈ 4.27 µM); MIC (K. pneumoniae BAA 2782): 0.125 µg/mL (≈ 0.267 µM); MIC (E. coli BAA 2469): 0.01 µg/mL (≈ 0.0213 µM); resistant colonies on exposure (E. coli ATCC 25922 [8]): no resistant colonies
